In ChEMBL document CHEMBL5131432, “Novel 2,4-disubstituted quinazoline analogs as antibacterial agents with improved cytotoxicity profile: Modification of the benzenoid part” (Bioorg Med Chem Lett, 2022):
Converted amounts (≈) assume the structure as drawn.

Assays:
Staphylococcus aureus [1] = experiment: Antibacterial activity against methicillin-sensitive Staphylococcus aureus Newman assessed as bacterial growth inhibition; assay type: functional
Staphylococcus aureus [2] = experiment: Antibacterial activity against methicillin-resistant Staphylococcus aureus N315 assessed as bacterial growth inhibition; assay type: functional
Staphylococcus aureus [3] = experiment: Antibacterial activity against methicillin-resistant and vancomycin-intermediate Staphylococcus aureus Mu50 assessed as bacterial growth inhibition; assay type: functional
Streptococcus pneumoniae [4] = experiment: Antibacterial activity against Streptococcus pneumoniae DSM-20566 assessed as bacterial growth inhibition; assay type: functional
Streptococcus pneumoniae [5] = experiment: Antibacterial activity against penicillin-resistant Streptococcus pneumoniae DSM-11865 assessed as bacterial growth inhibition; assay type: functional
Enterococcus faecium = experiment: Antibacterial activity against Enterococcus faecium DSM-20477 assessed as bacterial growth inhibition; assay type: functional
Enterococcus faecalis = experiment: Antibacterial activity against Enterococcus faecalis DSM-20478 assessed as bacterial growth inhibition; assay type: functional
Escherichia coli [6] = experiment: Antibacterial activity against wild type Escherichia coli DSM-11116 assessed as bacterial growth inhibition; assay type: functional
Escherichia coli [7] = experiment: Antibacterial activity against Escherichia coli K12 harbouring TolC-deficient mutant assessed as bacterial growth inhibition; assay type: functional
[8] = tested on: Mycolicibacterium smegmatis; experiment: Antibacterial activity against Mycobacterium smegmatis mc2 155 assessed as bacterial growth inhibition; assay type: functional
[9] = Cytotoxicity against human HepG2 cells assessed as inhibition of cell growth; assay type: toxicity, cell-based

Row | Compound | MIC (Staphylococcus aureus [1]) [µg/mL] | MIC (Staphylococcus aureus [2]) [µg/mL] | MIC (Staphylococcus aureus [3]) [µg/mL] | MIC (Streptococcus pneumoniae [4]) [µg/mL] | MIC (Streptococcus pneumoniae [5]) [µg/mL] | MIC (Enterococcus faecium) [µg/mL] | MIC (Enterococcus faecalis) [µg/mL] | MIC (Escherichia coli [6]) [µg/mL] | MIC (Escherichia coli [7]) [µg/mL] | MIC [8] [µg/mL] | IC50 [9] [µg/mL]
1 | CCCCNc1nc(SCCCC)nc2ccc(Cl)cc12 | > 128 | > 128 | > 128 | > 128 | > 128 | > 128 | > 128 | > 128 | > 128 | > 128 | –
2 | CCCCNc1nc(SCCCC)nc2ccc(-c3ccc(C(=O)O)cc3)cc12 | > 128 | > 128 | > 128 | > 128 | > 128 | > 128 | > 128 | > 128 | > 128 | > 128 | –
3 | CCCCNc1nc(SCCCC)nc2c1cnn2CCCC | > 128 | > 128 | > 128 | 8 (≈ 23.8 µM) | > 128 | > 128 | > 128 | > 128 | > 128 | > 128 | –
4 | CCCCNc1nc(SCCCC)nc2ccc(-c3cccc(C#N)c3)cc12 | > 128 | > 128 | > 128 | > 128 | > 128 | > 128 | > 128 | > 128 | > 128 | > 128 | –
5 | CCCCNc1nc(SCCCC)nc2cc(Br)ccc12 | > 128 | > 128 | > 128 | > 128 | > 128 | > 128 | > 128 | > 128 | > 128 | > 128 | –
6 | CCCCNc1nc(SCCCC)nc2ccc(Br)cc12 | > 128 | > 128 | > 128 | > 128 | > 128 | > 128 | > 128 | > 128 | > 128 | > 128 | –
7 | CCCCNc1nc(SCCCC)nc2sccc12 | 8 (≈ 27.1 µM) | 32 (≈ 108 µM) | > 128 | 8 (≈ 27.1 µM) | 8 (≈ 27.1 µM) | > 128 | > 128 | > 128 | 8 (≈ 27.1 µM) | 16 (≈ 54.1 µM) | > 37
8 | CCCCNc1nc(SCCCC)nc2ccc(-c3ccncc3)cc12 | > 128 | > 128 | > 128 | > 128 | > 128 | > 128 | > 128 | > 128 | > 128 | > 128 | –
9 | CCCCNc1nc(SCCCC)nc2ccc(NC(=O)NCC)cc12 | > 128 | > 128 | > 128 | > 128 | > 128 | > 128 | > 128 | > 128 | > 128 | > 128 | –
10 | CCCCNc1nc(SCCCC)nc2ccc(F)cc12 | > 128 | > 128 | > 128 | > 128 | > 128 | > 128 | > 128 | > 128 | > 128 | > 128 | –
11 | CCCCNc1nc(SCCCC)nc2ccc(-c3cccc(C(=O)O)c3)cc12 | 8 (≈ 19.5 µM) | 8 (≈ 19.5 µM) | 8 (≈ 19.5 µM) | 4 (≈ 9.77 µM) | 16 (≈ 39.1 µM) | 8 (≈ 19.5 µM) | 8 (≈ 19.5 µM) | > 128 | > 128 | > 128 | > 37
12 | CCCCNc1nc(SCCCC)nc2cc(-c3cccnc3)ccc12 | > 128 | > 128 | > 128 | > 128 | > 128 | > 128 | > 128 | > 128 | > 128 | > 128 | –
13 | CCCCNc1nc(SCCCC)nc2ccc(-c3cccc(CO)c3)cc12 | > 128 | > 128 | > 128 | > 128 | > 128 | > 128 | > 128 | > 128 | > 128 | > 128 | –
14 | CCCCNc1nc(SCCCC)nc2ccc(-c3cccc(OC)c3)cc12 | > 128 | > 128 | > 128 | > 128 | > 128 | > 128 | > 128 | > 128 | > 128 | > 128 | –
15 | CCCCNc1nc(SCCCC)nc2cc(-c3ccccc3)ccc12 | > 128 | > 128 | > 128 | > 128 | > 128 | > 128 | > 128 | > 128 | > 128 | > 128 | –
16 | CCCCNc1nc(SCCCC)nc2nn(CCCC)cc12 | > 128 | > 128 | > 128 | > 128 | > 128 | > 128 | > 128 | > 128 | > 128 | > 128 | –
17 | CCCCNc1nc(SCCCC)nc2cc(Cl)ccc12 | > 128 | > 128 | > 128 | > 128 | > 128 | > 128 | > 128 | > 128 | > 128 | > 128 | –
18 | CCCCNc1nc(SCCCC)nc2ccc(-c3cccnc3)cc12 | > 128 | > 128 | > 128 | > 128 | > 128 | > 128 | > 128 | > 128 | > 128 | > 128 | –
19 | CCCCNc1nc(SCCCC)nc2ccc(-c3cn[nH]c3)cc12 | > 128 | > 128 | > 128 | > 128 | > 128 | > 128 | > 128 | > 128 | > 128 | > 128 | –
20 | CCCCNc1nc(SC)nc2n[nH]cc12 | 64 (≈ 270 µM) | 64 (≈ 270 µM) | 64 (≈ 270 µM) | > 128 | > 128 | > 128 | > 128 | > 128 | 64 (≈ 270 µM) | > 128 | –
21 | CC(=O)NC[C@H]1CN(c2ccc(N3CCOCC3)c(F)c2)C(=O)O1 [LINEZOLID] | 1 (≈ 2.96 µM) | – | – | – | – | 4 (≈ 11.9 µM) | – | > 64 | 16 (≈ 47.4 µM) | 4 (≈ 11.9 µM) | –
22 | CN[C@H](CC(C)C)C(=O)N[C@H]1C(=O)N[C@@H](CC(N)=O)C(=O)N[C@H]2C(=O)N[C@H]3C(=O)N[C@H](C(=O)N[C@H](C(=O)O)c4cc(O)cc(O)c4-c4cc3ccc4O)[C@H](O)c3ccc(c(Cl)c3)Oc3cc2cc(c3O[C@@H]2O[C@H](CO)[C@@H](O)[C@H](O)[C@H]2O[C@H]2C[C@](C)(N)[C@H](O)[C@H](C)O2)Oc2ccc(cc2Cl)[C@H]1O [VANCOMYCIN] | – | – | 8 (≈ 5.52 µM) | 0.5 (≈ 0.345 µM) | 1 (≈ 0.69 µM) | – | 0.5 (≈ 0.345 µM) | > 64 | > 64 | 8 (≈ 5.52 µM) | –
